We go through eleven compounds from article doi:10.1101/2020.02.10.936898v1 (biorxiv, 2020).

The assay concerns the target SARS-CoV M^pro (Severe acute respiratory syndrome-related coronavirus, UniProt P0C6X7). The experiment in a line: biochemical. It is filed as biochemical.

By IC50 is commonly meant the midpoint of a concentration-inhibition curve. Read a low IC50 as greater potency.

As to `O=C(/C=C/c1ccccc1)N[C@@H](Cc1ccccc1)C(=O)N[C@@H](C[C@@H]1CCNC1=O)C(=O)C(=O)NCc1ccccc1` [11a, (S)-N-benzyl-3-((S)-2-cinnamamido-3-phenylpropanamido)-2-oxo-4-((S)-2-oxopyrrolidin-3-yl)butanamide], half-maximal inhibition (IC50) required 1950 ± 240 nM.

The compound `CC(C)(C)OC(=O)N[C@@H](C[C@@H]1CCNC1=O)C(=O)C(=O)NCc1ccccc1` [11f, tert-Butyl ((S)-4-(benzylamino)-3,4-dioxo-1-((S)-2-oxopyrrolidin-3-yl)butan-2-yl)carbamate] displayed an IC50 above 50000 nM.

Compound `O=C(/C=C/c1ccccc1)N[C@@H](Cc1ccc(F)cc1)C(=O)N[C@@H](C[C@@H]1CCNC1=O)C(=O)C(=O)NCc1ccccc1` [11m, (S)-N-benzyl-3-((S)-2-cinnamamido-3-(4-fluorophenyl)propanamido)-2-oxo-4-((S)-2-oxopyrrolidin-3-yl)butanamide] returned an IC50 above 50000 nM.

For `CC(C)C[C@H](NC(=O)/C=C/c1ccccc1)C(=O)N[C@@H](C[C@@H]1CCNC1=O)C(=O)C(=O)NCc1ccccc1` [11n, (S)-N-((S)-4-(benzylamino)-3,4-dioxo-1-((S)-2-oxopyrrolidin-3-yl)butan-2-yl)-2-cinnamamido-4-methylpentanamide], it took 330 ± 40 nM to reach half-maximal inhibition (IC50).

`CCCC[C@H](NC(=O)/C=C/c1ccccc1)C(=O)N[C@@H](C[C@@H]1CCNC1=O)C(=O)C(=O)NCc1ccccc1` [11o, (S)-N-((S)-4-(benzylamino)-3,4-dioxo-1-((S)-2-oxopyrrolidin-3-yl)butan-2-yl)-2-cinnamamidohexanamide] had an IC50 of 8500 ± 3710 nM.

Turning to `C#CC[C@H](NC(=O)/C=C/c1ccccc1)C(=O)N[C@@H](C[C@@H]1CCNC1=O)C(=O)C(=O)NCc1ccccc1` [11p, (S)-N-((S)-4-(benzylamino)-3,4-dioxo-1-((S)-2-oxopyrrolidin-3-yl)butan-2-yl)-2-cinnamamidopent-4-ynamide], the IC50 was 10700 ± 7340 nM.

`O=C(/C=C/c1ccccc1)N[C@H](C(=O)N[C@@H](C[C@@H]1CCNC1=O)C(=O)C(=O)NCc1ccccc1)C1CC1` [11q, (S)-N-benzyl-3-((S)-2-cinnamamido-2-cyclopropylacetamido)-2-oxo-4-((S)-2-oxopyrrolidin-3-yl)butanamide]: the IC50 is 6270 ± 2870 nM.

As to `O=C(/C=C/c1ccccc1)N[C@@H](CC1CCCCC1)C(=O)N[C@@H](C[C@@H]1CCNC1=O)C(=O)C(=O)NCc1ccccc1` [11r, (S)-N-benzyl-3-((S)-2-cinnamamido-3-cyclohexylpropanamido)-2-oxo-4-((S)-2-oxopyrrolidin-3-yl)butanamide], the midpoint of inhibition, the IC50, lay at 710 ± 360 nM.

In turn, `O=C(/C=C/c1ccccc1)N[C@@H](CC1CC1)C(=O)N[C@@H](C[C@@H]1CCNC1=O)C(=O)C(=O)NCc1ccccc1` [11s, (S)-N-benzyl-3-((S)-2-cinnamamido-3-cyclopropylpropanamido)-2-oxo-4-((S)-2-oxopyrrolidin-3-yl)butanamide] yielded an IC50 of 240 ± 80 nM.

With `O=C(/C=C/c1ccccc1)N[C@@H](CC1CCC1)C(=O)N[C@@H](C[C@@H]1CCNC1=O)C(=O)C(=O)NCc1ccccc1` [11t, (S)-N-benzyl-3-((S)-2-cinnamamido-3-cyclobutylpropanamido)-2-oxo-4-((S)-2-oxopyrrolidin-3-yl)butanamide], 1440 ± 400 nM corresponded to half-maximal inhibition (IC50).

Consider `O=C(/C=C/c1ccccc1)N[C@@H](CC1CCCC1)C(=O)N[C@@H](C[C@@H]1CCNC1=O)C(=O)C(=O)NCc1ccccc1` [11u, (S)-N-benzyl-3-((S)-2-cinnamamido-3-cyclopentylpropanamido)-2-oxo-4-((S)-2-oxopyrrolidin-3-yl)butanamide], for which the IC50 was 1270 ± 340 nM.
